Legend:
[1] = test system: Spontaneously hypertensive male rats; experiment: Antihypertensive activity in spontaneously hypertensive rats (oral, 10 successive days); format: in vivo, rat; conditions: 10 mg/kg/day p.o.
Protocol: Spontaneously hypertensive male rats [SHR, Jap. Circ. J. 27, 282-93 (1963)] being 18-23 weeks of age and having systolic blood pressure levels of 170-190 mmHg were used. The test compounds were each suspended in a 0.5% aqueous tragacanth solution and administered orally in a dose of 10 mg/kg/day by stomach tube to SHR once a day for 10 successive days. The blood pressure of conscious SHR was measured prior to dosing and 5 hours after administration. It was also measured once daily over a period of 7 days after the end of the treatment period. The measurement of the blood pressure was made by a plethysmographtail method [Jap. Circ. J. 27, 282-93 (1963)].

Male Wistar rats [2] = experiment: Effect on urine volume and electrolyte excretion; format: in vivo, rat; conditions: 100 mg/kg p.o., urinary excretion over 5 hours
Protocol: Male Wistar rats weighing 220 to 260 g were used. Each test compound was suspended in a solution of tragacanth dissolved in a concentration of 0.5% in a 0.9% saline solution so that the volume of the resulting suspension to be administered would be always 25 ml/Kg. The test compounds were administered orally by the stomach tube to the animals at the prescribed doses. The animals were then placed in a metabolic cage and the urine was collected over a period of 5 hours. The total amount of sodium, potassium and chloride excreted was determined by Auto-Analyzer, made by Technicon Instruments Corporation.

Male Wistar rats [3] = experiment: Effect on blood glucose (b), intraperitoneal; conditions: 300 mg/kg i.p.
Protocol: (b) Male Wistar rats weighing 260-285 g were used. […] 4 ml/kg of the above solution of each test compound was intraperitoneally administered to each animal. The blood samples were taken prior to dosing and 1, 3 and 6 hours after the administration and the plasma glucose levels were determined in a similar manner to that described in (a).

Male Wistar rats [4] = experiment: Effect on blood glucose (a), oral; conditions: 300 mg/kg p.o.
Protocol: (a) Male Wistar rats weighing 190-210 g were used. Each test compound was suspended in a concentration of 150 mg/ml in a 0.5% aqueous tragacanth solution and orally administered at a dose of 300 mg/kg by the stomach tube.

[5] = cited from earlier work
[6] = well known; cited from earlier work

- Cl- (Male Wistar rats [2]): 0.20 mEq
- K+ (Male Wistar rats [2]): 0.37 mEq
- Na+ (Male Wistar rats [2]): 0.17 mEq
- Na+/K+ (Male Wistar rats [2]): 0.51
- Blood glucose (Male Wistar rats [3]; 0 hr (prior to dosing)): 100 mg/dL
- Blood glucose (Male Wistar rats [3]; 1 hr): 361 mg/dL
- Blood glucose (Male Wistar rats [3]; 3 hr): 599 mg/dL
- Blood glucose (Male Wistar rats [3]; 6 hr): 675 mg/dL
- Blood glucose (Male Wistar rats [4]; 0 hr (prior to dosing)): 111 mg/dL
- Blood glucose (Male Wistar rats [4]; 1 hr): 126 mg/dL
- Blood glucose (Male Wistar rats [4]; 3 hr): 125 mg/dL
- Blood glucose (Male Wistar rats [4]; 6 hr): 146 mg/dL
- Blood glucose (Male Wistar rats [4]; 10 hr): 148 mg/dL
SMILES: CC1=Nc2ccc(Cl)cc2S(=O)(=O)N1 [Compound 3, 7-chloro-3-methyl-2H-1,2,4-benzothiadiazine 1,1-dioxide]
- Blood pressure ([1]; day 0, 5 hours after administration): 155 mm Hg
- Blood pressure ([1]; day 0, prior to dosing (0)): 173 mm Hg
- Blood pressure ([1]; day 2, 5 hours after administration): 146 mm Hg
- Blood pressure ([1]; day 2, prior to dosing (0)): 166 mm Hg
- Blood pressure ([1]; day 4, 5 hours after administration): 151 mm Hg
- Blood pressure ([1]; day 4, prior to dosing (0)): 159 mm Hg
- Blood pressure ([1]; day 6, 5 hours after administration): 143 mm Hg
- Blood pressure ([1]; day 6, prior to dosing (0)): 150 mm Hg
- Blood pressure ([1]; day 8, 5 hours after administration): 137 mm Hg
- Blood pressure ([1]; day 8, prior to dosing (0)): 153 mm Hg
- Blood pressure ([1]; day 10, 24 hours after the final treatment): 144 mm Hg
- Blood pressure ([1]; day 14, 120 hours after the final treatment): 175 mm Hg
- Diuretic action ([5]; known): no diuretic action
- Antidiuretic activity ([5]; literature): antidiuretic effects (i.e., sodium and water retaining effect)
- Hyperglycemic effects [6]: marked hyperglycemic effects
